# Measured values: patent US20240382435A1, “NON-CERULOPLASMIN BOUND COPPER LEVEL MONITORING” (ORPHALAN S.A., priority 2021, published 2024)
# Columns and labels:
# [1] = system: patients with Wilson's Disease; test: Serum NCC by copper speciation assay, randomized open-label clinical study (Example 3); format: in vivo, human
# Protocol: 1.95 mL of rhodium internal standard solution containing 1% TMAH/1% EDTA was combined with 50 μL of human serum in a 15 mL polypropylene tube, capped and rotary mixed for at least 30 minutes. The processed sample was then analysed by ICP-MS on an Agilent 7900x inductively coupled plasma mass spectrometer.
# The samples were defrosted and equilibrated to room temperature prior to use, and vortex mixed for approximately 5 seconds. 80 μL of 50 mM Tris-HCl (pH 7.4) buffer solution was combined with 20 μL of the clinical sample, blank or reference standard in a 0.5 mL Eppendorf tube (protein low bind). The diluted sample (100 μL) was transferred to a 0.3 mL polypropylene LC vial and sealed with a screw cap. An aliquot (50 μL) of each processed sample was then analysed by LC-ICP-MS on an Agilent 8900x inductively coupled plasma mass spectrometer.
# Speciation analysis of Cu-containing species in the serum samples was performed by an anion exchange high performance liquid chromatography (AE HPLC) column (GE Healthcare MonoQ 5/50 GL, stationary phase (10 μm; 5×50 mm)) with an ammonium acetate gradient (0-250 mM) for 20 min. A flow rate of 1.0 mL/min was used. The chromatographic separation was performed at 25° C. Detection of the eluting Cu species was achieved using a collision/reaction cell Agilent Technologies 8900x ICP-MS spectrometer. The isotopes 63Cu and 65Cu were monitored in time resolved mode analysis using an integration time of 0.3 sec. 63Cu is the most abundant isotope and therefore this isotope was used to quantify copper by LC-ICP-MS.
# Efficacy was assessed and treatments were monitored primarily using total copper analysis and a copper speciation assay as outlined in Examples 1 and 2 to determine serum NCC levels.
# Eligible patients were clinically stable with their standard of-care D penicillamine chelation therapy for at least 1 year. These patients entered a 12-Week Penicillamine Baseline Period (from study visits on Day 1 to Week 12). During this time, all patients continued their current D penicillamine regimen under study conditions. At the end of the Penicillamine Baseline Period, patients who fulfilled the protocol definition of being adequately controlled and tolerating D penicillamine were randomized in a 1:1 ratio to receive either TETA 4HCl or to continue to receive D penicillamine during a 24-Week Post-Randomization Period (from study visits Week 12 to Week 36).
# The primary efficacy endpoint was the serum NCC concentration (in μg/L) at Week 36. Serum NCC concentrations were determined using a copper speciation serum NCC assay using the methodology outlined in Examples 1 and 2. The primary efficacy analysis utilized the serum NCC values from all study visits that were analyzed using a restricted maximum likelihood based general linear model for correlated data. The correlation due to repeated measures was modelled by specifying the variance covariance matrix.
# [2] = system: patients with Wilson's Disease; test: 24-hour urinary copper excretion (UCE), clinical study of Example 3; format: in vivo, human; conditions: for 24-hour UCE value, mean / 24-hour UCE value, median / 24-hour UCE change from baseline, mean / 24-hour UCE change from baseline, median: ITT
# Protocol: The number and the proportion of patients with a serum NCC value that matched the threshold (eg, serum NCC≤50 μg/L) were presented along with the 95% confidence interval of the proportion by visit and treatment arm. The proportions in the 2 arms were compared using Fisher's exact test. The same approach was applied on 24-hour UCE.
# [3] = system: patients with Wilson's Disease; test: Clinical Global Impression of Change (CGIC) rating scale, clinical study of Example 3; format: in vivo, human; design: key: 7-point ordinal CGIC scale, 4 = no change; conditions: 7-point scale, ITT
# Source text: The CGIC rating scale, a 7-point ordinal score, was summarized by visit and treatment arm, and compared between arms using a stratified Cochran-Mantel-Haenszel test. The UWDRS, a continuous measure, was summarized by visit and treatment arm with descriptive statistics for absolute values and the changes from baseline.
# [4] = system: patients with Wilson's Disease; test: Baseline ALT, clinical study of Example 3; conditions: human, in vivo
# Source text: For change from baseline in laboratory measurements, “baseline” was defined as the last non-missing value during the Penicillamine Baseline Period, including unscheduled values.
# [5] = Day 1, 12-Week Penicillamine Baseline Period (all patients on D-penicillamine), ITT population, by arm
# [6] = Week 4, Penicillamine Baseline Period (all patients on D-penicillamine), ITT
# [7] = Week 8, Penicillamine Baseline Period (all patients on D-penicillamine), ITT
# [8] = Week 12 (randomization), end of Penicillamine Baseline Period, ITT
# [9] = Week 16, Post-Randomization Period, ITT
# [10] = Week 20, Post-Randomization Period, ITT
# [11] = Week 24, Post-Randomization Period, ITT
# [12] = Week 28, Post-Randomization Period, ITT
# [13] = Week 32, Post-Randomization Period, ITT
# [14] = Week 36, Post-Randomization Period, ITT
# [15] = Day 1, 12-Week Penicillamine Baseline Period (all patients on D-penicillamine), by arm
# [16] = Week 4, Penicillamine Baseline Period (all patients on D-penicillamine)
# [17] = Week 12 (randomization), end of Penicillamine Baseline Period
# [18] = Week 16, 24-Week Post-Baseline Period
# [19] = Week 24, 24-Week Post-Baseline Period
# [20] = Week 36, 24-Week Post-Baseline Period
# [21] = Week 12, Penicillamine Baseline Period
# [22] = Week 16, Post-Randomization Period
# [23] = Week 24, Post-Randomization Period
# [24] = Week 36, Post-Randomization Period
structure (smiles),measurement,setting,value
"CC(C)(S)[C@@H](N)C(=O)O [D-Penicillamine, D-penicillamine]","serum NCC value, mean",[1]; [5],63.9 µg/L
same,"serum NCC value, median",[1]; [5],61.0 µg/L
same,"serum NCC value, mean",[1]; [6],59.4 µg/L
same,"serum NCC value, median",[1]; [6],58.4 µg/L
same,"serum NCC value, mean",[1]; [7],71.9 µg/L
same,"serum NCC value, median",[1]; [7],69.0 µg/L
same,"serum NCC value, mean",[1]; [8],84.4 µg/L
same,"serum NCC value, median",[1]; [8],83.0 µg/L
same,"serum NCC value, mean","[1]; Week 16, 24-Week Post-Randomization Period, ITT",82.8 µg/L
same,"serum NCC change from baseline, mean",[1]; [9],-2.1 µg/L
same,"serum NCC change from baseline, median",[1]; [9],0.0 µg/L
same,"serum NCC value, median",[1]; [9],77.5 µg/L
same,"serum NCC change from baseline, mean",[1]; [10],-12.3 µg/L
same,"serum NCC change from baseline, median",[1]; [10],-11.6 µg/L
same,"serum NCC value, mean",[1]; [10],73.3 µg/L
same,"serum NCC value, median",[1]; [10],75.5 µg/L
same,"serum NCC change from baseline, mean",[1]; [11],-16.9 µg/L
same,"serum NCC change from baseline, median",[1]; [11],-20.0 µg/L
same,"serum NCC value, mean",[1]; [11],66.3 µg/L
same,"serum NCC value, median",[1]; [11],64.0 µg/L
same,"serum NCC change from baseline, mean",[1]; [12],-10.6 µg/L
same,"serum NCC change from baseline, median",[1]; [12],-17.5 µg/L
same,"serum NCC value, mean",[1]; [12],73.1 µg/L
same,"serum NCC value, median",[1]; [12],65.1 µg/L
same,"serum NCC change from baseline, mean",[1]; [13],-19.1 µg/L
same,"serum NCC change from baseline, median",[1]; [13],-21.7 µg/L
same,"serum NCC value, mean",[1]; [13],64.6 µg/L
same,"serum NCC value, median",[1]; [13],62.0 µg/L
same,"serum NCC value, mean","[1]; Week 36 (primary efficacy endpoint), Post-Randomization Period, ITT",53.4 µg/L
same,"serum NCC change from baseline, mean",[1]; [14],-29.7 µg/L
same,"serum NCC change from baseline, median",[1]; [14],-34.0 µg/L
same,"serum NCC value, median",[1]; [14],51.0 µg/L
same,"serum NCC levels, comparison between arms","[1]; copper speciation assay, Table 4",very similar
same,"24-hour UCE value, mean",[2]; [15],568.3 μg/24 hours
same,"24-hour UCE value, median",[2]; [15],478.8 μg/24 hours
same,"24-hour UCE value, mean",[2]; [16],551.5 μg/24 hours
same,"24-hour UCE value, median",[2]; [16],594.6 μg/24 hours
same,"24-hour UCE value, mean",[2]; [17],539.1 μg/24 hours
same,"24-hour UCE value, median",[2]; [17],496.0 μg/24 hours
same,"24-hour UCE change from baseline, mean",[2]; [18],−26.8 μg/24 hours
same,"24-hour UCE change from baseline, median",[2]; [18],−60.3 μg/24 hours
same,"24-hour UCE value, mean",[2]; [18],512.1 μg/24 hours
same,"24-hour UCE value, median",[2]; [18],501.4 μg/24 hours
same,"24-hour UCE change from baseline, mean",[2]; [19],37.9 μg/24 hours
same,"24-hour UCE change from baseline, median",[2]; [19],23.4 μg/24 hours
same,"24-hour UCE value, mean",[2]; [19],546.8 μg/24 hours
same,"24-hour UCE value, median",[2]; [19],495.3 μg/24 hours
same,"24-hour UCE change from baseline, mean",[2]; [20],4.9 μg/24 hours
same,"24-hour UCE change from baseline, median",[2]; [20],−4.7 μg/24 hours
same,"24-hour UCE value, mean",[2]; [20],519.7 μg/24 hours
same,"24-hour UCE value, median",[2]; [20],536.9 μg/24 hours
same,"24-hour UCE, comparison between treatment arms","[2]; all time points analyzed after randomization, statistically significant differences",higher levels of copper excretion
same,"Clinical Global Impression of Change Scale, mean","[3]; Week 4, Penicillamine Baseline Period (all patients on D-penicillamine), 4 = no change",4.1
same,"Clinical Global Impression of Change Scale, median",[3]; [16],4.0
same,"Clinical Global Impression of Change Scale, mean",[3]; [21],3.9
same,"Clinical Global Impression of Change Scale, median",[3]; [21],4.0
same,"Clinical Global Impression of Change Scale, mean",[3]; [22],4.1
same,"Clinical Global Impression of Change Scale, median",[3]; [22],4.0
same,"Clinical Global Impression of Change Scale, mean",[3]; [23],4.0
same,"Clinical Global Impression of Change Scale, median",[3]; [23],4.0
same,"Clinical Global Impression of Change Scale, mean",[3]; [24],4.0
same,"Clinical Global Impression of Change Scale, median",[3]; [24],4.0
same,"ALT, mean baseline",[4],35.6 U/L
